The values that follow come from PMC10986487, “Epidrugs: alternative chemotherapy targeting Theileria annulata schizont stage parasites” (Microbiology Spectrum, 2024).

pIC50: −log10 of the molar value. Where two headings read alike, the source gives them in different places.

For assay [1], the system named is T. annulata-infected bovine cells. Briefly: Resazurin-based drug susceptibility assay, 2-fold serial dilutions, 48 hours. It counts as cell-based, Theileria annulata. Conditions: 0.019 µM to 10 µM, read-out: IC50 against T. annulata-infected cells. The procedure:
In this study, we conducted a screening of 148 compounds from the Cayman epigenetics library against the asexual schizont stage of T. annulata-infected bovine cells to assess their potential anti-theilerial activity (Fig. 1A). The initial screening involved testing the compounds at a concentration of 10 µM, with BPQ serving as the internal control. […] Subsequently, we performed drug susceptibility assays on the selected 27 compounds to determine their 50% inhibitory concentration (IC50) values against T. annulata-infected cells. To do this, 2-fold serial dilutions ranging from 0.019 µM to 10 µM were prepared, and the percentage of cell death was assessed after 48 hours using resazurin-based assays.
Fig 1 Screening of epigenetic inhibitors for potential anti-theilerial activity in T. annulata-infected cells. (A) List of compounds and their functional classes used in this study. (B) Inhibition (%) of the hits (n = 27) with anti-theilerial activity when screened in T. annulata-infected cells, where the cut-off (--) was set at 50% inhibition. […] (E) Flow cytometry-based detection of annexin V-positive T. annulata-infected cells upon drug treatment for detection of early apoptosis.
In general terms: Resazurin is reduced to fluorescent resorufin, in cell work by metabolically active cells.

The test system of assay [2] is Theileria annulata. Further details: method as in earlier work. Conditions: ref 14 (Titus et al.); read-out: Concentration displaying anti-theilerial effects; cited from earlier work.

As for `O=C(CCl)Nc1ccc(S(=O)(=O)c2ccc(NC(=O)CCl)cc2)cc1` [TCE-5003], in assay [1], the pIC50 is 5.43.
On to `COC(=O)/C=C/C(=O)N(O)CCCCNCc1ccc(COC(=O)Nc2cccc3ccccc23)cc1` [Methylstat], for which the pIC50 in assay [1] is 5.16.
Regarding `CC1(C)C(=O)N=C2C1=C(O)C(=O)c1ccccc12` [BVT-948], the pIC50 in assay [1] was 5.59.
On the same count and under the same terms, as for `Cc1ccc(NC2=CC(=O)c3sc(C)nc3C2=O)cc1` [Ryuvidine], the figure is 5.66; as for `CC(/C=C/C(=O)NO)=C\[C@@H](C)C(=O)c1ccc(N(C)C)cc1` [Trichostatin A], 5.22.
In the case of `CC1=CC(=O)c2c(O)cccc2C1=O` [Plumbagin], the figures for the pIC50 in assay [2] and in assay [1] (Theileria annulata) were 8.05 and 5.09, respectively.
